Laboratory results as given in patent US6599499B1, “Uses of diterpenoid triepoxides as an anti-proliferative agent” (priority 1999, dated 2003).
Several values for one entry are separate records, joined by “and”; a condition that tells them apart may be missing. Equal entries are not always repeated.

Key:
p53 mRNA = p53 mRNA by RT-PCR in MCF-7 cells; assay type: cell-based, human; conditions: MCF-7 cells treated for 16 h
Experimental: (§1) RT-PCR. RNA was prepared from MCF-7 cells using Rneasy Mini Kit from Qiagen Inc. (Valencia, Calif.). cDNAs were prepared using M-MLV reverse transcriptase (Gibco) with 2 μg of total RNA. 1/20 of total cDNA was used in limited (25 cycles) PCR reactions using Taq polymerase (Gibco). The following primer pairs were used: p53 [SEQ ID NO:1] 5′-[…]-3′ and 5′-[SEQ ID NO:2] TCTTCUTXGGCTGGGGAGAG-3′, mdm2, [SEQ ID NO:3] 5′-[…]-3′ and [SEQ ID NO:4] 5′-[…]-3′, p21, [SEQ ID NO:5] 5′-[…]-3′ and [SEQ ID NO:6] 5′-[…]-3′, and glyceraldehyde-3-phosphate dehydrogenase (GAPDH)- [SEQ ID NO:7] 5′-[…]-3′ and [SEQ ID NO:8] 5′-[…]-3′.
(§2) In the experiments shown in FIG. 5, RT-PCR was performed using 2 μg of total RNAs extracted from MCF-7 cells. […] GADPH was used as a loading control. The plasmid pBP100-GL2 which contains a p53-binding site in the mdm2 promoter was transiently transfected into MCF-7 cells, and cellular lysates were used for the luciferase assay.

Mdm2 = Mdm2 mRNA (RT-PCR) and protein (immunoblot) in MCF-7 cells; assay type: cell-based, human
Experimental: as §1
Immunoblotting. At 8 hours after triptolide and/or doxorubicin treatment cells were harvested at the times indicated and lysed using HNET buffer (50 mM HEPES pH 7.5, 100 mM NaCl, 1 mM EGTA, and 1% Triton X-100) supplemented with 1 mM DTT, 1 mM PMSF and protease inhibitors cocktail (Boehringer Mannheim, Germany). 35 μg of protein was loaded on 10% SDS-PAGE followed by transferring to PVDF membrane. Immunoblotting was performed as previously described using a p53 mouse monoclonal antibody from Oncogene Research Products (Lee et al. (1999) J Biol Chem 274:13451-5).
as §2

p53 translation = p53 translation by [35S]methionine metabolic labeling of MCF-7 cells; assay type: cell-based, human; conditions: MCF-7, triptolide 20 ng/ml pretreatment 6 h
Experimental: Metabolic labeling of MCF-7cells. Cells were grown to 80% confluence followed by pretreatment with triptolide (20 ng/ml) for 6 h in the appropriate medium. Cells were washed twice with short-term labeling medium (RPMI with 5% dialyzed FCS supplemented with L-glutamine, penicillin, and streptomycin). To deplete intracellular pools of methionine short-term labeling medium was added for 15 min at 37° C., then replaced by short-term labeling medium containing 0.1 mCi/ml [^35S] methionine (Amersham, Inc.). Cells were labeled for 30 min at 37° C. and washed with ice-cold PBS before harvesting for immunoprecipitation. The cells were lysed using RIPA buffer supplemented with protease inhibitors and immunoprecipitated using an agarose-conjugated p53 mAb (Ab-6, Oncogene Research Products) followed by 10% SDS-PAGE. The intensity of labeled p53 protein was measured by NIH Image 1.62.

[1] = tested on: p53 consensus binding site; assay: Electromobility shift assay of p53 DNA binding; assay type: cell-based, human
Experimental: Electromobility Shift Assay (EMSA. HT1080 cells were treated as shown. The EMSA was performed as described previously using an end-labeled 32P-p53 consensus binding site (Santa Cruz Biotechnology, Santa Cruz, Calif.) (Lee et al., supra.)

HT1080 cells = assay: Apoptosis by Annexin V and Propidium Iodide staining, HT1080 cells; assay type: cell-based, human; design: unit of the concentration uncertain; conditions: HT1080, 20 h; PG490 5 ng/ml; CPT-11 (5 µM) alone, (5 μM) in combination; PG490 pretreatment 4 h then CPT-11 16 h
Experimental: HT1080 cells were treated as shown and harvested for analysis of apoptosis by Annexin V and Propidium Iodide staining 20 h after treatment. In experiments with a combination of PG490 and CPT-11, cells were pretreated with PG490 for 4 h followed by the addition of CPT-11 for 16 h.

[2] = room temperature
Experimental: Stock solutions of PG490-88 (1 mg/ml) were prepared by dissolution in 0.9% NaCl and sterilized by microfiltration using 0.2 μm pore size filters (Supor Acrodisc 25, Gelman Sciences, Ann Arbor, Mich.). The PG490-88 stock solutions were diluted in 0.9% NaCl for IP administration.

[3] = tested on: Dx5 MDR human tumor cells; assay: Nude mouse xenograft, established Dx5 MDR tumors; assay type: in vivo, nude mice
Experimental: Nude mouse xenograft model. Female NCr nude mice were purchased from Taconic, Germantown, N.Y., and were generally 20-24 grams when used. Mice were kept in autoclaved filter-top microisolator cages with autoclaved water and sterile food ad lib. The cages were maintained in an isolator unit providing filtered air (Lab Products, Inc., Maywood, N.J.). Tumor cells were grown and harvested as described above. NCr nude mice were injected intradermally with 5×10^6 tumor cells. In some experiments, treatment was initiated on the day of tumor cell implantation. […] Mice were treated IP daily for 5 days per week.
MDR is a factor in failing to achieve durable chemotherapeutic efficacy in the clinical setting. Using an MDR tumor cell line Dx5 the efficacy of PG490-88 was tested. Nude mice were implanted intradermally with Dx5 tumor cells, and treatment was initiated when the tumors reached approximately 100 mm^3.
The data in FIG. 4 represents the measurement of Dx5 tumor volume on day 14 after the initiation of treatment. Nude mice bearing xenografts of Dx5 MDR human tumor cells were treated daily as shown. The data represent the means and the standard errors of the means of the tumor volumes as percent of the day 0 tumor volumes for each animal measured day 3, 7, 10 and 14 days after the initiation of treatment. There were 5 mice in the groups receiving saline or PG490-88 plus doxorubicin, and 4 mice in the groups receiving PG490-88 or doxorubicin alone.

NF-κB = NF-κB transcriptional activity in HT1080 cells; assay type: cell-based, human

## CC(C)[C@]12O[C@H]1[C@@H]1O[C@]13[C@]1(O[C@H]1C[C@H]1C4=C(CC[C@@]13C)C(=O)OC4)[C@@H]2O [PG490, triptolide]
p53 mRNA
  p53 mRNA level: slightly reduced
Mdm2; MCF-7, triptolide 5 ng/ml, 8 or 24 hours
  change in levels of the Mdm2 protein: no significant change
Mdm2; MCF-7, triptolide 20 ng/ml, 8 h
  increase in Mdm2 protein: approximately 1.5 fold
Mdm2; MCF-7, triptolide 20 ng/ml, 24 h
  Mdm2 protein: almost a complete loss
Mdm2; cells treated with triptolide
  mdm2 mRNA: time-dependent decrease
p53 translation
  increase in p53 translation: 4.9 fold and 5 fold
[1]; triptolide alone
  DNA binding of p53: slightly enhanced
[1]; triptolide in combination with doxorubicin
  effect on doxorubicin-mediated induction of DNA binding of p53: did not block
HT1080 cells
  Apoptotic Cells (%): 13.5%

## CC(C)[C@]12O[C@H]1[C@@H]1O[C@]13[C@]1(O[C@H]1C[C@H]1C4=C(CC[C@@]13C)C(=O)OC4)[C@@H]2OC(=O)CCC(=O)[O-].[Na+] [PG490-88, 14-succinyl triptolide sodium salt]
[2]
  half-life in mouse serum: < 5 min
[3]; PG490-88 0.75 mg/kg/day, one of four mice
  growth of one tumor compared with its day 0 value: 2.8 fold
[3]; PG490-88 0.75 mg/kg/day, three of the four mice
  reduction of mean tumor size compared to day 0 values: 28%

## COc1cccc2c1C(=O)c1c(O)c3c(c(O)c1C2=O)C[C@@](O)(C(=O)CO)C[C@@H]3O[C@H]1C[C@H](N)[C@H](O)[C@H](C)O1 [doxorubicin, reference compound]
[3]; doxorubicin alone 2 mg/kg/day
  increase of mean tumor volume over 14 days: more than 10 fold
Mdm2; MCF-7 cells, doxorubicin 100 nM
  increase in the Mdm2 mRNA and protein: 1.5-2 fold
NF-κB
  NF-κB transcriptional activity: did not induce
